The results in this text go back to ChEMBL document CHEMBL3588852, “Gastroprotective activity of ent-beyerene derivatives in mice: Effects on gastric secretion, endogenous prostaglandins and non-protein sulfhydryls” (Bioorg Med Chem Lett, 2015).

The first assay deals with Mus musculus. Nature of the assay: Gastroprotective activity in Swiss albino mouse model of HCl/EtOH-induced lesion pre-treated with 3.5 mg/kg vanilloid receptor antagonist ruthenium red assessed as gastric lesion index at 50 mg/kg, po dosed 50 mins before HCl/EtOH challenge and measured 1 hr post HCl/EtOH challenge (reference value: 12.1 +/- 2.5 mm). It is filed as functional, Stomach.
Conditions: not given
For the molecule `C[C@]12C=C[C@@]3(CC[C@@H]4[C@@](C)(COC(=O)/C=C/c5cccc(Cl)c5)CCC[C@@]4(C)[C@@H]3CC1)C2`, the Activity stood at 17 mm.

The next assay relates to Mus musculus. Nature of the assay: Gastroprotective activity in Swiss albino mouse model of HCl/EtOH-induced lesion assessed as inhibition of gastric lesions at 20 mg/kg, po dosed 50 mins before HCl/EtOH challenge and measured 1 hr post HCl/EtOH challenge. The format is functional. To be noted: Stomach.
As a reminder, the inhibition in vivo is the relative decrease from the control value, in per cent. As to `Cc1c(OCC(F)(F)F)ccnc1C[S+]([O-])c1nc2ccccc2[nH]1` (stereo not given) [LANSOPRAZOLE], the inhibition in vivo at 20 mg/kg is 57%.

The next assay has as its system Mus musculus. Nature of the assay: Gastroprotective activity in Swiss albino mouse model of HCl/EtOH-induced lesion assessed as gastric lesion index at 100 mg/kg, po dosed 50 mins before HCl/EtOH challenge and measured 1 hr post HCl/EtOH challenge (reference value: 42 +/- 1.9 mm). The format is functional, Stomach.
Conditions: not given
Regarding `CC1(C)[C@@H](OC(=O)CCC(=O)O)CC[C@]2(C)[C@H]3C(=O)C=C4[C@@H]5C[C@@](C)(C(=O)O)CC[C@]5(C)CC[C@@]4(C)[C@]3(C)CC[C@@H]12` [CARBENOXOLONE], the Activity worked out at 13.1 mm.

A further assay concerns AGS. The assay is described as follows: Cytotoxic activity against human AGS cells assessed as reduction in cell viability incubated for 48 hrs by MTT assay. It is filed as cell-based.
Conditions: not given
In general terms: Tetrazolium assays rely on reduction of a dye to a coloured formazan, in cell work by metabolically active cells.
A word on the IC50: it is the concentration needed to halve the response being measured. Regarding `C[C@]12C=C[C@@]3(CC[C@@H]4[C@@](C)(CO)CCC[C@@]4(C)[C@@H]3CC1)C2`, the IC50 was determined as 19 µM.
Still for that read-out and setting: with `C[C@]12C=C[C@@]3(CC[C@@H]4[C@@](C)(COC(=O)/C=C/c5ccc(F)cc5)CCC[C@@]4(C)[C@@H]3CC1)C2` the figure was 58 µM; with `COc1ccc(/C=C/C(=O)OC[C@@]2(C)CCC[C@]3(C)[C@@H]2CC[C@@]24C=C[C@@](C)(CC[C@H]23)C4)cc1`, 230 µM; with `C[C@]12C=C[C@@]3(CC[C@@H]4[C@@](C)(COC(=O)/C=C/c5cccc([N+](=O)[O-])c5)CCC[C@@]4(C)[C@@H]3CC1)C2`, 29 µM.
Consider `Cc1ccc(/C=C/C(=O)OC[C@@]2(C)CCC[C@]3(C)[C@@H]2CC[C@@]24C=C[C@@](C)(CC[C@H]23)C4)cc1`, for which the IC50 worked out at 39 µM.
Still for that read-out and setting: with `CCCCCCCCCC(=O)OC[C@@]1(C)CCC[C@]2(C)[C@@H]1CC[C@@]13C=C[C@@](C)(CC[C@H]12)C3` the figure was 21 µM; with `CCCCCCCCCCCCCCCC(=O)OC[C@@]1(C)CCC[C@]2(C)[C@@H]1CC[C@@]13C=C[C@@](C)(CC[C@H]12)C3`, 64 µM; with `CCCCCCCCCCCCCC(=O)OC[C@@]1(C)CCC[C@]2(C)[C@@H]1CC[C@@]13C=C[C@@](C)(CC[C@H]12)C3`, 38 µM.
Still for that read-out and setting: the result for `Cc1c(OCC(F)(F)F)ccnc1C[S+]([O-])c1nc2ccccc2[nH]1` (stereo not given) [LANSOPRAZOLE] reads 149 µM.
On the same count and under the same terms, with `C[C@]12C=C[C@@]3(CC[C@@H]4[C@@](C)(COC(=O)/C=C/c5cccc(Cl)c5)CCC[C@@]4(C)[C@@H]3CC1)C2` the figure was 12 µM.

The test system of the next assay is Mus musculus. The assay is described as follows: Gastroprotective activity in Swiss albino mouse model of HCl/EtOH-induced lesion pre-treated with 10 mg/kg sulfhydryl inhibitor NEM assessed as gastric lesion index at 50 mg/kg, po dosed 50 mins before HCl/EtOH challenge and measured 1 hr post HCl/EtOH challenge (reference value: 12.1 +/- 2.5 mm). It is filed as functional, Stomach.
Conditions: not given
Take `C[C@]12C=C[C@@]3(CC[C@@H]4[C@@](C)(COC(=O)/C=C/c5cccc(Cl)c5)CCC[C@@]4(C)[C@@H]3CC1)C2`: the Activity came to 15.2 mm.

Another assay has as its system Mus musculus. Nature of the assay: Gastroprotective activity in Swiss albino mouse model of HCl/EtOH-induced lesion assessed as inhibition of gastric lesions at 100 mg/kg, po dosed 50 mins before HCl/EtOH challenge and measured 1 hr post HCl/EtOH challenge. It is filed as functional. As to conditions: Stomach.
Regarding `C[C@]12C=C[C@@]3(CC[C@@H]4[C@@](C)(CO)CCC[C@@]4(C)[C@@H]3CC1)C2`, the inhibition in vivo at 100 mg/kg is 79%.

Tested on in a further assay: not listed separately
Nature of the assay: Cytotoxic activity against human fibroblasts assessed as reduction in cell viability incubated for 48 hrs by MTT assay. It is filed as cell-based. As to conditions: Fibroblast.
For the molecule `C[C@]12C=C[C@@]3(CC[C@@H]4[C@@](C)(CO)CCC[C@@]4(C)[C@@H]3CC1)C2`, the 50% inhibitory concentration (IC50) was determined as 31 µM.
With `C[C@]12C=C[C@@]3(CC[C@@H]4[C@@](C)(COC(=O)/C=C/c5ccc(F)cc5)CCC[C@@]4(C)[C@@H]3CC1)C2`, the IC50 is 69 µM.
Still for that read-out and setting: with `COc1ccc(/C=C/C(=O)OC[C@@]2(C)CCC[C@]3(C)[C@@H]2CC[C@@]24C=C[C@@](C)(CC[C@H]23)C4)cc1` the figure was 378 µM; with `C[C@]12C=C[C@@]3(CC[C@@H]4[C@@](C)(COC(=O)/C=C/c5cccc([N+](=O)[O-])c5)CCC[C@@]4(C)[C@@H]3CC1)C2`, 44 µM; with `Cc1ccc(/C=C/C(=O)OC[C@@]2(C)CCC[C@]3(C)[C@@H]2CC[C@@]24C=C[C@@](C)(CC[C@H]23)C4)cc1`, 49 µM.
With `CCCCCCCCCC(=O)OC[C@@]1(C)CCC[C@]2(C)[C@@H]1CC[C@@]13C=C[C@@](C)(CC[C@H]12)C3`, the half-inhibitory concentration (IC50) turned out to be 33 µM.
Take `CCCCCCCCCCCCCCCC(=O)OC[C@@]1(C)CCC[C@]2(C)[C@@H]1CC[C@@]13C=C[C@@](C)(CC[C@H]12)C3`: the IC50 came out at 88 µM.
The same measure, in the same setting: with `CCCCCCCCCCCCCC(=O)OC[C@@]1(C)CCC[C@]2(C)[C@@H]1CC[C@@]13C=C[C@@](C)(CC[C@H]12)C3` the figure was 61 µM; with `Cc1c(OCC(F)(F)F)ccnc1C[S+]([O-])c1nc2ccccc2[nH]1` (stereo not given) [LANSOPRAZOLE], 291 µM; with `C[C@]12C=C[C@@]3(CC[C@@H]4[C@@](C)(COC(=O)/C=C/c5cccc(Cl)c5)CCC[C@@]4(C)[C@@H]3CC1)C2`, 15 µM.

A further assay has as its system Mus musculus. Nature of the assay: Gastroprotective activity in Swiss albino mouse model of HCl/EtOH-induced lesion assessed as inhibition of gastric lesions at 12.5 to 100 mg/kg, po dosed 50 mins before HCl/EtOH challenge and measured 1 hr post HCl/EtOH challenge. The format is functional. As to conditions: Stomach.
Usually ED50 stands for the midpoint of the dose-response relation. For the molecule `C[C@]12C=C[C@@]3(CC[C@@H]4[C@@](C)(CO)CCC[C@@]4(C)[C@@H]3CC1)C2`, the ED50 amounted to 50 mg/kg and the inhibition entry was “Dose-dependent effect”.

The next assay relates to Mus musculus. The assay is described as follows: Gastroprotective activity in Swiss albino mouse model of HCl/EtOH-induced lesion assessed as gastric lesion index at 50 mg/kg, po dosed 50 mins before HCl/EtOH challenge and measured 1 hr post HCl/EtOH challenge (reference value: 42 +/- 1.9 mm).
Conditions: not given
It is filed as functional, Stomach.
Take `C[C@]12C=C[C@@]3(CC[C@@H]4[C@@](C)(COC(=O)/C=C/c5cccc(Cl)c5)CCC[C@@]4(C)[C@@H]3CC1)C2`: the Activity is 12.1 mm.

A further assay has as its system Mus musculus. The assay is described as follows: Gastroprotective activity in Swiss albino mouse model of HCl/EtOH-induced lesion assessed as inhibition of gastric lesions at 50 mg/kg, po dosed 50 mins before HCl/EtOH challenge and measured 1 hr post HCl/EtOH challenge. It is filed as functional. As to conditions: Stomach.
Take `C[C@]12C=C[C@@]3(CC[C@@H]4[C@@](C)(CO)CCC[C@@]4(C)[C@@H]3CC1)C2`: the inhibition in vivo at 50 mg/kg came to 53%.
On the same count and under the same terms, the result for `C[C@]12C=C[C@@]3(CC[C@@H]4[C@@](C)(COC(=O)/C=C/c5ccc(F)cc5)CCC[C@@]4(C)[C@@H]3CC1)C2` reads 24%.
Regarding `COc1ccc(/C=C/C(=O)OC[C@@]2(C)CCC[C@]3(C)[C@@H]2CC[C@@]24C=C[C@@](C)(CC[C@H]23)C4)cc1`, the inhibition in vivo at 50 mg/kg was 11%.
On the same count and under the same terms, with `C[C@]12C=C[C@@]3(CC[C@@H]4[C@@](C)(COC(=O)/C=C/c5cccc([N+](=O)[O-])c5)CCC[C@@]4(C)[C@@H]3CC1)C2` the figure was 2%; with `Cc1ccc(/C=C/C(=O)OC[C@@]2(C)CCC[C@]3(C)[C@@H]2CC[C@@]24C=C[C@@](C)(CC[C@H]23)C4)cc1`, 8%; with `CCCCCCCCCC(=O)OC[C@@]1(C)CCC[C@]2(C)[C@@H]1CC[C@@]13C=C[C@@](C)(CC[C@H]12)C3`, 52%.
In the case of `CCCCCCCCCCCCCCCC(=O)OC[C@@]1(C)CCC[C@]2(C)[C@@H]1CC[C@@]13C=C[C@@](C)(CC[C@H]12)C3`, the inhibition in vivo at 50 mg/kg was found to be 46%.
As for `CCCCCCCCCCCCCC(=O)OC[C@@]1(C)CCC[C@]2(C)[C@@H]1CC[C@@]13C=C[C@@](C)(CC[C@H]12)C3`, the inhibition in vivo at 50 mg/kg was 46%.
Take `Cc1c(OCC(F)(F)F)ccnc1C[S+]([O-])c1nc2ccccc2[nH]1` (stereo not given) [LANSOPRAZOLE]: the inhibition in vivo at 50 mg/kg turned out to be 65%.
Still for that read-out and setting: the result for `C[C@]12C=C[C@@]3(CC[C@@H]4[C@@](C)(COC(=O)/C=C/c5cccc(Cl)c5)CCC[C@@]4(C)[C@@H]3CC1)C2` reads 77%.

Another assay has as its system Mus musculus. Nature of the assay: Gastroprotective activity in Swiss albino mouse model of HCl/EtOH-induced lesion pre-treated with 70 mg/kg NO synthase inhibitor L-NAME assessed as gastric lesion index at 50 mg/kg, po dosed 50 mins before HCl/EtOH challenge and measured 1 hr post HCl/EtOH challenge (reference value: 12.1 +/- 2.5 mm). The format is functional, Stomach.
Conditions: not given
In the case of `C[C@]12C=C[C@@]3(CC[C@@H]4[C@@](C)(COC(=O)/C=C/c5cccc(Cl)c5)CCC[C@@]4(C)[C@@H]3CC1)C2`, the Activity is given as 13.1 mm.

A further assay has as its system Mus musculus. Nature of the assay: Gastroprotective activity in Swiss albino mouse model of HCl/EtOH-induced lesion pre-treated with 10 mg/kg prostaglandin synthesis inhibitor indomethacin assessed as gastric lesion index at 50 mg/kg, po dosed 50 mins before HCl/EtOH challenge and measured 1 hr post HCl/EtOH challenge (reference value: 12.1 +/- 2.5 mm). It is filed as functional, Stomach.
Conditions: not given
In the case of `C[C@]12C=C[C@@]3(CC[C@@H]4[C@@](C)(COC(=O)/C=C/c5cccc(Cl)c5)CCC[C@@]4(C)[C@@H]3CC1)C2`, the Activity is 38.9 mm.
